Holding throughout (assay type): cell-based
The subject of one test is Klebsiella pneum. 1852. The test is described as follows: MIC, Table 1, Klebsiella pneum. 1852. The source says:
(§1) The penicillanic acid 1,1-dioxide derivatives according to the invention inactivate, by inhibition or destruction, the bacterial enzymes which split the β-lactam ring (β-lactamases). The degradation of other penicillins, for example of amoxicillin, mezlocillin, ampicillin, azlocillin, penicillin G, carbenicillin and ticarcillin, is thereby prevented, and on the one hand their activity is thereby retained and on the other hand their spectrum of action is extended to bacteria which produce β-lactamase.

For test [1], the system named is Staphylococcus aeureus 1756. The test is described as follows: MIC, Table 1, Staphylococcus aureus 1756.
Text: as §1

Test [2] relates to Staphylococcus aureus 133. Description: in vitro turbidity test in Muller-Hinton nutrient broth. The settings on record: dosage of 1 μg/ml; 1×10^5 to 2×10^5 bacteria per ml; 0.1% glucose; incubated 24 hours. The procedure:
[…] In each case, the nutrient solution contained 1×10^5 to 2×10^5 bacteria per ml. The small tubes containing this batch were each incubated for 24 hours and the degree of turbidity was then determined. Absence from turbidity indicates action.

A further test concerns E. coli T 7. Description: MIC, Table 1, E. coli T 7.
Text: as §1

The structures appear in SMILES notation. Bounds are passed on as bounds.

Take `CCOC(OCC)(OCC)C(=O)N[C@@H]1C(=O)N2[C@@H](C(=O)O)C(C)(C)S(=O)(=O)[C@H]12` [Example 1]: the MIC (against Klebsiella pneum. 1852; in test [1]) was above 256 E/ml in each case. Moreover, in test [2], the “degree of turbidity (absence from turbidity indicates action)” value is listed as “free from turbidity”.

As to `CC1(C)S[C@@H]2[C@H](NC(=O)[C@H](NC(=O)N3CCN(S(C)(=O)=O)C3=O)c3ccccc3)C(=O)N2[C@H]1C(=O)O` [mezlocillin], the MIC with E. coli T 7 is reported as above 256 E/ml; with Klebsiella pneum. 1852, 128 E/ml; in test [1], 256 E/ml.

Source of the values: patent publication US4344939A, “Penicillin 1,1-dioxides, compositions thereof and methods of use” (Bayer Aktiengesellschaft, priority 1979, dated 1982).
